Measured values as given in patent US20230165841A1, “PREVENTION AND INTERVENTION OF INFARCT EXPANSION FOLLOWING HEMORRHAGIC INFARCTIONS” (CEDARS-SINAI MEDICAL CENTER, priority 2020, published 2023).
Entries after “also recorded” stand apart in the source; their conditions may differ.

Assays:
[1] = system: cardiomyocyte culture; experiment: Total ROS in cardiomyocyte culture treated with Hx, DFP, hemin; type: cell-based; settings: compared to controls; FIG. 16 axis μM/mg protein/min
Excerpt: FIG. 16 is a bar graph depicting the total ROS production (μM/mg protein/min) in cardiomyocyte culture treated with different agents or control, indicating the importance of physiochemical state of degradation products of hemorrhage being the therapeutic targets.
Physiochemical features of degradation products of hemorrhage are important for determining optimal therapy. An early byproduct of hemorrhage is extracellular heme (an Fe^2+ complex), which is eventually internalized by cardiomyocytes. Applicant tested whether pretreating cardiomyocytes in culture with hemopexin (Hx), a heme scavenger, can rescue the cells from oxidative stress compared to an intracellular Fe^3+ chelator deferiprone (DFP). Methods: Studies were performed in an cardiomyocyte culture. Total ROS following treatment with Hx, DFP, hemin, hemin+Hx, hemin+DFP were measured. […] Summary: Location of hemorrhagic byproducts (intra- vs. extra-cellular) and oxidation state are critical features that need to be accounted for in the development of therapies against hMI. To develop an optimal ICT strategy against hMI we will identify the physiochemical features of hemorrhagic byproducts in rats with hMI sacrificed at different time points.

[2] = system: dogs with reperfused hemorrhagic MI; experiment: Deferiprone interventional arm in canine model of hemorrhagic MI (serial CMR); type: in vivo, dog
[3] = system: rats subjected to hMIs (90-min I/R); settings: for LVEF: echocardiography, EDTA 40 mg/kg/day oral gavage upon reperfusion, followed 4 weeks, PBS 30±4%; for Adverse LV remodeling / cardioprotection: rats with hMI, post reperfusion treatment
[4] = cited from earlier work
[5] = system: post MI patients; settings: 6 months of EDTA therapy starting 6-weeks post MI; cited from earlier work
[6] = system: mice with reperfused MI; settings: pre-treating prior to ischemia; cited from earlier work
[7] = system: rats with 90-min I/R (hMI); experiment: Hemopexin treatment of rats with 90-min I/R (hMI); type: in vivo, rat
Excerpt: FIGS. 12A and 12B depict the therapeutic benefits of hemopexin (Hx). […] Note the ventricular dilation in rats treated with PBS (not evident Hx treated rates). Long- and shor-axis (along dotted lines) views are shown.
Background: Hemopexin (Hx), a known scavenger of heme, and a key byproduct of hemorrhage. Applicant tested whether treating rats with 90-min I/R (known to yield hMI) with Hx could reduce oxidative stress in the acute phase and improve LV remodeling in the chronic phase. Methods: Rats (n=12) underwent 90-min I/R: 50% of the animals were treated with Hx (700 μg, i.p. immediately and 2 days post reperfusion) and the rest were treated with PBS. LV function was determined with echo. Half of each group was sacrificed at 24-hrs and the rest were sacrificed at 1-month post MI. […] LVEF were: 51±4% (Hx+) vs 32±5% (control), p<0.05. Summary: Heme-specific scavenger, Hx, can attenuate the adverse effects of hMI.

[8] = DFP 100 mg/kg/day oral gavage from 3 days post reperfusion
[9] = vs EDTA-treated or placebo controls

Cc1c(O)c(=O)ccn1C [DFP, Deferiprone]
Total ROS, agent alone [1]: did not increase
Relative PDFF in the MI zones, change between D3 and Wk8 ([2]; DFP+/IMH+ group): did not show an increase
LVEF ([2]; DFP+/IMH+ group by M6, p<0.03): over 40%
Remote wall thickness, change over the 6-month period ([2]; DFP+/IMH+ group, diastolic): decreased
Magnitude of peak circumferential strain (Peak εc) vs DFP−/IMH+ group ([2]; Wk8 to M6 and D3 to M6, p<0.05): significant greater
Fat infiltration within the MI zones vs DFP−/IMH+ group ([2]; at M6): significantly lower
Infarct wall thickness, treated group compared to untreated group ([2]; at M6, p<0.05): +34%
Infarct-to-remote wall thickness (I:RWT), DFP+/IMH+ vs DFP−/IMH+ ([2]; at M6, p<0.05): +67%
Remote wall thickness, DFP−/IMH+ group compared to DFP+/IMH+ group ([2]; at M6, untreated larger, p<0.05): +28%
LVEF, DFP+/IMH+ group vs DFP−/IMH+ group ([2]; at Month 6, p<0.005): +36%
Fat content based on PDFF (normalized to D3) vs untreated group ([2]; at Wk8 and M6): marked reduction
End-systolic volume (ESV) vs DFP−/IMH+ group ([2]; at both Wk8 and Mo6, p<0.05): lower
Fat content within MI zone vs untreated control group ([2]; at the end of the treatment period (Wk8)): decreased precipitously
Safety of delayed treatment [3, 8]: safe
Iron and proinflammatory markers in the scarred myocardium ([3]; IL-1β, TNF-α, MMP9, vs EDTA-treated or placebo controls): reduced
Iron in MI zones ([3]; T2*-CMR / Prussian Blue, vs EDTA-treated or placebo controls): little to no iron; also recorded: much lower
LVEF [3, 8]: 42±4%
Adverse LV remodeling / cardioprotection [3]: marked reduction
LV dilatation [3, 9]: reduced
Wall thickness (infarcted and remote) [3, 9]: thicker

CC(=O)N(O)CCCCCNC(=O)CCC(=O)N(O)CCCCCNC(=O)CCC(=O)N(O)CCCCCN [DFO, deferoxamine]
Lipid solubility (note in Location column) [4]: (lipid insoluble)

O=C(O)CN(CCN(CC(=O)O)CC(=O)O)CC(=O)O [EDTA, ethylenediaminetetraacetic acid]
LVEF [3, 8]: 32±3%
Adverse LV remodeling / cardioprotection [3]: did not decrease; also recorded: does not provide cardioprotection
Stability of ferric-EDTA complex ([4]; can be transformed to ferrous-EDTA in vivo): unstable
MACE [5]: did not decrease

hemin
Total ROS, agent alone [1]: markedly increased

c1ccc(-c2ccccn2)nc1 [BPD, 2,2-bipyridl]
Mitochondrial iron and reperfusion injury [6]: could reduce

B1: hemopexin (protein, UniProt P02790 24-462, looked up)
Hemopexin: TPLPPTSAHGNVAEGETKPDPDVTERCSDGWSFDATTLDDNGTMLFFKGEFVWKSHKWDRELISERWKNFPSPVDAAFRQGHNSVFLIKGDKVWVYPPEKKEKGYPKLLQDEFPGIPSPLDAAVECHRGECQAEGVLFFQGDREWFWDLATGTMKERSWPAVGNCSSALRWLGRYYCFQGNQFLRFDPVRGEVPPRYPRDVRDYFMPCPGRGHGHRNGTGHGNSTHHGPEYMRCSPHLVLSALTSDNHGATYAFSGTHYWRLDTSRDGWHSWPIAHQWPQGPSAVDAAFSWEEKLYLVQGTQVYVFLTKGGYTLVSGYPKRLEKEVGTPHGIILDSVDAAFICPGSSRLHIMAGRRLWWLDLKSGAQATWTELPWPHEKVDGALCMEKSLGPNSCSANGPGLYLIHGPNLYCYSDVEKLNAAKALPQPQNVTSLLGCTH
notes: a known scavenger of heme
LV remodeling ([7]; 1-month post reperfusion, vs PBS-treated group): better
Total ROS (production within MI) ([7]; 24 hrs post reperfusion, Hx 700 μg i.p. immediately and 2 days post reperfusion, vs PBS control): significantly lower
LVEF ([7]; echo, Hx 700 μg i.p. immediately and 2 days post reperfusion, control 32±5%, p<0.05): 51±4%
Total ROS, agent alone [1]: did not increase
